How the values were obtained:
[1] = test system: SKBR-3 (human breast cancer); test: Cancer cell killing, MTT assay at pH 7.4 and pH 6.5; assay type: cell-based; settings: regardless of pH (7.4, 6.5)
Protocol: (§1) In order to confirm the cancer cell killing effect of the CA and API-based pH-sensitive carbon nanoparticle drug carrier encapsulated with doxorubicin prepared in Example 4, HCT-116 (human colon cancer), SKBR-3 (human breast cancer), PANC-1 (human pancreas cancer) cells were used. The pH-sensitive carbon nanoparticle drug carrier was treated by concentration of doxorubicin in culture solutions of pH 7.4 and pH 6.5, respectively, and the comparison group was comparatively evaluated by treating doxorubicin alone by concentration. Cell death was performed using the MTT assay, and analyzed at 490 nm using a microplate reader.

[2] = test system: PANC-1 (human pancreas cancer); test: as above; assay type: cell-based; settings: regardless of pH (7.4, 6.5)
Protocol: as §1

[3] = test system: HCT-116 (human colon cancer); test: as above; assay type: cell-based; settings: regardless of pH (7.4, 6.5)
Protocol: as §1

[4] = test system: HCT-116 (Human colon cancer) cells; test: Inhibition of cancer growth in vivo, cancer tissue size for 15 days; parameters: species or system BALB/c mice; settings: intravenous, 2 mg/ml based on doxorubicin
Protocol: After that, the size of the cancer tissue was measured for 15 days to confirm the anticancer effect.

[5] = test system: CT-26 (Mouse colon cancer) cells; test: Intracellular influx according to pH, confocal microscopy; assay type: cell-based; settings: pH 7.4, 4 hours
Protocol: In order to confirm the influx effect into cancer cells at pH 7.4 and pH 6.5 using the pH-sensitive photodynamic therapeutic agent prepared in the above Example 5, CT-26 (Mouse colon cancer) cells were used. The pH-sensitive carbon nanoparticle-based photodynamic therapeutic agent was treated for 4 hours in the culture solutions of pH 7.4 and pH 6.5, respectively, and chlorine e6 was treated alone as a control group for comparative evaluation. The intracellular influx was analyzed by fluorescence (460, 665 nm) of carbon nanoparticles and chlorine e6 using confocal microscopy.

[6] = Active oxygen generation, singlet oxygen sensor green (SOSG), 670 nm laser; settings: for singlet oxygen generation: 670 nm laser, 20 mW/cm^2
Protocol: A singlet oxygen sensor green (SOSG) capable of detecting singlet oxygen was used to confirm the generation of active oxygen in particles of a pH-sensitive photodynamic therapeutic agent prepared in the above Example 5.
Specifically, 1 ml of a solution in which SOSG was dissolved and 1 ml of a solution in which a pH-sensitive carbon nanoparticle-based photodynamic therapeutic agent was dissolved were mixed, and a 670 nm laser was irradiated. The laser was irradiated with an energy of 20 mW/cm^2, and the fluorescence intensity was measured using a fluorescence spectrophotometer every 10 seconds (0.2 J/cm^2) to confirm the generation of active oxygen. In addition, in order to measure the efficiency of generating reactive oxygen species according to pH, 1 ml of a solution in which a pH-sensitive photodynamic therapeutic agent having pH 7.4, the pH in vivo and a pH of 6.5 in a cancer environment, was dissolved and 1 ml of a SOSG solution were mixed, and a 670 nm laser is irradiated. The laser was irradiated with an energy of 50 mW/cm^2, and the fluorescence intensity was measured using a fluorescence spectrophotometer every 10 seconds (0.5 J/cm^2) to confirm the generation of active oxygen species.

[7] = test system: CT-26 (Mouse colon cancer) cells; test: In vivo photodynamic anticancer and immune anticancer effect, both cancer tissues for 15 days; parameters: species or system BALB/c mice; settings: 0.4 mg/ml based on chlorine e6 i.v.
Source text: In order to confirm the anticancer effect in vivo and the anticancer effect due to photodynamic-based immunity induction of the pH-sensitive photodynamic therapeutic agent prepared in the above Example 5, CT-26 (Mouse colon cancer) cells were inoculated subcutaneously in the left leg of BALB/c mice (1×10^6 cells) and the right leg (5×10^5 cells). When the size of the cancer tissue reaches about 50 mm^3, a pH-sensitive photodynamic therapeutic agent, chlorine e6 alone formulation as a comparative group, pH-sensitive carbon nanoparticles without drug encapsulation, and PBS were injected intravenously at 0.4 mg/ml based on chlorine e6, and after 24 hours after intravenous injection, only the left cancer tissue was irradiated with a laser. This was repeated twice, and the laser was irradiated for 1000 seconds (100 J/cm^2) with an energy of 100 mW/cm^2. By measuring the size of both cancer tissues for 15 days, the photodynamic anticancer effect and the resulting immune anti-cancer effect were confirmed.

[8] = test system: CT-26 (Mouse colon cancer) cells; test: In vivo behavior, in vivo fluorescence imaging for 24 hours; parameters: species or system BALB/c nude mice; settings: intravenous, 0.4 mg/ml based on chlorine e6, 24 hours
Protocol: In order to confirm the in vivo behavior of the pH-sensitive photodynamic therapeutic agent prepared in the above Example 5, CT-26 (Mouse colon cancer) cells were inoculated into BALB/c nude mice. When the size of the cancer tissue reaches about 50-100 mm^3, a pH-sensitive photodynamic therapeutic agent (Ce6@CDs) and chlorine e6 alone formulation (Free Ce6) as a comparative group were injected intravenously at 0.4 mg/ml based on chlorine e6, and for 24 hours after then, the in vivo behavior was confirmed using in vivo fluorescence imaging (fluorescence-labeled bioimaging instrument) hourly.

[9] = test system: CT-26 (Mouse colon cancer) cells; test: Photodynamic cancer cell killing at pH 6.5, MTT assay; settings: pH 6.5, 1 μg/ml based on chlorine e6, 670 nm laser irradiated (+), 2 J/cm^2
Protocol: In order to confirm the cancer cell killing effect of the pH-sensitive photodynamic therapeutic agent prepared in the above Example 5 at a cancer environment pH of 6.5, CT-26 (Mouse colon cancer) cells were used. Samples of the pH-sensitive carbon nanoparticle-based photodynamic therapeutic agent and chlorine e6 alone as other comparative group and carbon nanoparticles without pH sensitivity (Comparative Example 1) were treated with 1 μg/ml based on the concentration of chlorine e6 in the pH 6.5 culture medium, equally and a 670 nm laser was irradiated thereto. The laser was irradiated for […] (2 J/cm^2) with an energy of 50 mW/cm^2. Cell death was performed using the MTT assay, and analyzed at 570 nm using a microplate reader.

[10] = cited from earlier work

Molecule: COc1cccc2c1C(=O)c1c(O)c3c(c(O)c1C2=O)C[C@@](O)(C(=O)CO)C[C@@H]3O[C@H]1C[C@H](N)[C@H](O)[C@H](C)O1 [Free DOX, doxorubicin]
- concentration at which cells died [1]: about 50 ug/ml
- concentration at which cells died [2]: about 50 ug/ml
- concentration at which cells died [3]: about 50 ug/ml
- cancer growth in vivo [4]: cancer continued to grow

Molecule: C=Cc1c(C)c2cc3nc(c(CC(=O)O)c4[nH]c(cc5nc(cc1[nH]2)C(C)=C5CC)c(C)c4C(=O)O)[C@@H](CCC(=O)O)[C@@H]3C [Free Ce6, chlorine e6]
- degree of influx into cells [5]: similar
- singlet oxygen generation [6]: hardly produce singlet oxygen
- singlet oxygen generation according to pH ([6]; pH 7.4 and pH 6.5, 670 nm laser, 50 mW/cm^2): hardly generated singlet oxygen
- cancer growth regardless of laser irradiation [7]: cancer rapidly grows
- in vivo fluorescence behavior [8]: fluorescence quickly disappeared
- cell death rate [9]: 50%

Molecule: pheophorbide a [Pheo A]
- singlet oxygen generation [6]: hardly produce singlet oxygen

Molecule: NCCCn1ccnc1 [API, 1-(3-aminopropyl) imidazole]
- pKa value [10]: 6.9

Reference: patent US12409150B2, “pH-sensitive carbon nanoparticles, preparation method therefor, and drug delivery using same” (PCE Tech Co., Ltd., priority 2018, dated 2025)
